# Molecular target: T1, RARα (Mus musculus, UniProt P11416)
# T1 construct: expressed in transfected cells; host or cells: COS-7
# T1 sequence (P11416 183-417 limits assumed): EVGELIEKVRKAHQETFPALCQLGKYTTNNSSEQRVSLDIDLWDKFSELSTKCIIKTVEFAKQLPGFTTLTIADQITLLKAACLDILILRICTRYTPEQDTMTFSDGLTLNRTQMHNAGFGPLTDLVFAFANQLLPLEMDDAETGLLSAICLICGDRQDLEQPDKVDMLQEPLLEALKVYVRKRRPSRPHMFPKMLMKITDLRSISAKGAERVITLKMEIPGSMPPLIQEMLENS
# Test: RAR alpha transactivation assay (gal4-RAR LBD fusion, luciferase reporter, COS-7 cells)
# Format: cell-based
# Conditions: mouse RAR ligand binding domain; usually three experiments; read-out: α EC50
# Protocol: (§1) Compounds were tested in transactivation assays at the RAR α, β and γ receptors.
# (§2) Transactivation assays for RAR alpha, beta and gamma receptors:
# (§3) Transcriptional transactivation assays have been performed with gal4 fusion receptor constructs, created using each of the mouse RAR ligand-binding domains, co-transfected with the pFR-luc (Stratagene) reporter construct in COS-7 cells.
# (§4) Briefly, on day one, 96 well plates were seeded with 8000 cells per well then left to recover overnight. On day two, the cells were co-transfected with 100ng of reporter plasmid and 10ng of the appropriate receptor plasmid per well using lipofectamine (Invitrogen). On day three, the lipofectamine containing media was replaced by a DMEM without phenol red, followed by the addition of novel compounds dissolved in 1µl of DMSO to each well’s 100µl total volume. Finally, on day four, the cells were lysed and their luciferase substrate was provided by the BrightGlo reagent (Promega), the plates were then read on the MicroBeta TriLux (Perkin Elmer).
# (§5) Data for test compounds are quoted as EC50 values. Where replicate data has been generated the data are quoted as the mean EC50 from the separate experiments.
row,EC50,SMILES
1,19 nM,O=C(O)c1ccc(-c2noc(-c3cc4c(C(F)(F)F)ccc(F)c4o3)n2)cc1 [Compound 11]
2,600 nM,Cc1cc(C(=O)O)ccc1-c1noc(-c2cc3c(C)ccc(C)c3o2)n1 [Compound 17]
3,31 nM,CCOc1c(Cl)cc(-c2noc(-c3ccc(C(=O)O)cc3)n2)cc1Cl [Compound 6]
4,89 nM,Cc1cc(-c2noc(-c3cc4c(C)ccc(C)c4o3)n2)ccc1C(=O)O [Compound 15]
5,46 nM,"CCOc1c(Cl)cc(C(=O)Nc2ccc(C(=O)O)cc2)cc1Cl [Compound 1, 4-[(3,5-dichloro-4-ethoxybenzoyl)amino]benzoic acid]"
6,594 nM,CCOc1c(Cl)cc(-c2c[nH]c(-c3ccc(C(=O)O)cc3)n2)cc1Cl [Compound 3]
7,240 nM,CCOc1c(Cl)cc(-c2csc(-c3ccc(C(=O)O)cc3)n2)cc1Cl [Compound 2]
8,61 nM,Cc1ccc(C)c2oc(-c3nc(-c4ccc(C(=O)O)cc4F)no3)cc12 [Compound 16]
9,70 nM,"CCCCOCCOc1nc(-c2ccc(C(=O)O)c(F)c2)sc1C [AC 261066, reference compound]"
10,114 nM,Cc1ccc(C)c2oc(-c3nc(-c4ccc(C(=O)O)cc4)no3)nc12 [Compound 13]
11,58 nM,CCOc1c(Cl)cc(-c2nnc(-c3ccc(C(=O)O)cc3)o2)cc1Cl [Compound 7]
12,4 nM,CC(C)(C)c1cc(-c2nc(-c3ccc(C(=O)O)cc3)no2)cc(C(C)(C)C)c1 [Compound 9]
13,16 nM,Cc1ccc(C)c2oc(-c3nc(-c4ccc(C(=O)O)c(F)c4)no3)cc12 [Compound 14]
14,9.2 nM,"COc1ccc(-c2ccc3cc(C(=O)O)ccc3c2)cc1C1(C)CCCCC1 [CD 2019, reference compound]"
15,18 nM,CCOc1c(Cl)cc(-c2nc(-c3ccc(C(=O)O)cc3)no2)cc1Cl [Compound 5]
16,60 nM,CCOc1c(Cl)cc(-c2cnc(-c3ccc(C(=O)O)cc3)o2)cc1Cl [Compound 4]
17,30 nM,Cc1ccc(C)c2sc(-c3nc(-c4ccc(C(=O)O)cc4)no3)cc12 [Compound 12]

row,SMILES,EC50
1,CC1(C)CCC(C)(C)c2cc(-c3nc(-c4ccc(C(=O)O)cc4)no3)ccc21 [Compound 8],18 nM

# Molecular target: T2, RARβ (Mus musculus, UniProt P22605)
# T2 construct: expressed in transfected cells; host or cells: COS-7
# T2 sequence (P22605 210-444 limits assumed): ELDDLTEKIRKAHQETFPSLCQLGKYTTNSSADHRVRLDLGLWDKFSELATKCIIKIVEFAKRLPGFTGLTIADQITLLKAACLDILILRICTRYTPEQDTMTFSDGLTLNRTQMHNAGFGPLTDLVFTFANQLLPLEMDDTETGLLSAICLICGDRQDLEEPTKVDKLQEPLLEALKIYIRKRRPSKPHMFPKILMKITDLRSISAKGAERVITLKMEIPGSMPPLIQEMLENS
# Test: RAR beta transactivation assay (gal4-RAR LBD fusion, luciferase reporter, COS-7 cells)
# Format: cell-based
# Conditions: EC50 ratio of α to β, mouse; Tables 1 and 4
# Protocol: as §1, §2, §3, §4, §5
row,Fold selectivity for β over α,SMILES
1,0.28,CCOc1c(Cl)cc(-c2noc(-c3ccc(C(=O)O)cc3)n2)cc1Cl [Compound 6]
2,0.037,"CCOc1c(Cl)cc(C(=O)Nc2ccc(C(=O)O)cc2)cc1Cl [Compound 1, 4-[(3,5-dichloro-4-ethoxybenzoyl)amino]benzoic acid]"
3,1.4,CCOc1c(Cl)cc(-c2c[nH]c(-c3ccc(C(=O)O)cc3)n2)cc1Cl [Compound 3]
4,2,CCOc1c(Cl)cc(-c2csc(-c3ccc(C(=O)O)cc3)n2)cc1Cl [Compound 2]
5,5.8,"CCCCOCCOc1nc(-c2ccc(C(=O)O)c(F)c2)sc1C [AC 261066, reference compound]"
6,0.92,CCOc1c(Cl)cc(-c2nnc(-c3ccc(C(=O)O)cc3)o2)cc1Cl [Compound 7]
7,12,CCOc1c(Cl)cc(-c2nc(-c3ccc(C(=O)O)cc3)no2)cc1Cl [Compound 5]
8,2.1,CCOc1c(Cl)cc(-c2cnc(-c3ccc(C(=O)O)cc3)o2)cc1Cl [Compound 4]

# Same assay, conditions: EC50 ratio of γ to β, mouse
row,Fold selectivity for β over γ,SMILES
1,2,O=C(O)c1ccc(-c2noc(-c3cc4c(C(F)(F)F)ccc(F)c4o3)n2)cc1 [Compound 11]
2,0.3,Cc1cc(C(=O)O)ccc1-c1noc(-c2cc3c(C)ccc(C)c3o2)n1 [Compound 17]
3,0.05,CCOc1c(Cl)cc(-c2noc(-c3ccc(C(=O)O)cc3)n2)cc1Cl [Compound 6]
4,1.8,Cc1cc(-c2noc(-c3cc4c(C)ccc(C)c4o3)n2)ccc1C(=O)O [Compound 15]
5,24,"CCOc1c(Cl)cc(C(=O)Nc2ccc(C(=O)O)cc2)cc1Cl [Compound 1, 4-[(3,5-dichloro-4-ethoxybenzoyl)amino]benzoic acid]"
6,1.3,CCOc1c(Cl)cc(-c2csc(-c3ccc(C(=O)O)cc3)n2)cc1Cl [Compound 2]
7,0.33,Cc1ccc(C)c2oc(-c3nc(-c4ccc(C(=O)O)cc4F)no3)cc12 [Compound 16]
8,2.8,"CCCCOCCOc1nc(-c2ccc(C(=O)O)c(F)c2)sc1C [AC 261066, reference compound]"
9,7.5,Cc1ccc(C)c2oc(-c3nc(-c4ccc(C(=O)O)cc4)no3)nc12 [Compound 13]
10,2.4,CCOc1c(Cl)cc(-c2nnc(-c3ccc(C(=O)O)cc3)o2)cc1Cl [Compound 7]
11,2.1,CC(C)(C)c1cc(-c2nc(-c3ccc(C(=O)O)cc3)no2)cc(C(C)(C)C)c1 [Compound 9]
12,3.8,Cc1ccc(C)c2oc(-c3nc(-c4ccc(C(=O)O)c(F)c4)no3)cc12 [Compound 14]
13,19,CCOc1c(Cl)cc(-c2nc(-c3ccc(C(=O)O)cc3)no2)cc1Cl [Compound 5]
14,1.6,CCOc1c(Cl)cc(-c2cnc(-c3ccc(C(=O)O)cc3)o2)cc1Cl [Compound 4]
15,2,Cc1ccc(C)c2sc(-c3nc(-c4ccc(C(=O)O)cc4)no3)cc12 [Compound 12]

row,SMILES,Fold selectivity for β over γ
1,CC1(C)CCC(C)(C)c2cc(-c3nc(-c4ccc(C(=O)O)cc4)no3)ccc21 [Compound 8],0.0041

# Same assay, conditions: mouse RAR ligand binding domain; usually three experiments; read-out: β EC50
row,EC50,SMILES
1,2.5 nM,O=C(O)c1ccc(-c2noc(-c3cc4c(C(F)(F)F)ccc(F)c4o3)n2)cc1 [Compound 11]
2,47 nM,Cc1cc(C(=O)O)ccc1-c1noc(-c2cc3c(C)ccc(C)c3o2)n1 [Compound 17]
3,110 nM,CCOc1c(Cl)cc(-c2noc(-c3ccc(C(=O)O)cc3)n2)cc1Cl [Compound 6]
4,14 nM,Cc1cc(-c2noc(-c3cc4c(C)ccc(C)c4o3)n2)ccc1C(=O)O [Compound 15]
5,1230 nM,"CCOc1c(Cl)cc(C(=O)Nc2ccc(C(=O)O)cc2)cc1Cl [Compound 1, 4-[(3,5-dichloro-4-ethoxybenzoyl)amino]benzoic acid]"
6,423 nM,CCOc1c(Cl)cc(-c2c[nH]c(-c3ccc(C(=O)O)cc3)n2)cc1Cl [Compound 3]
7,120 nM,CCOc1c(Cl)cc(-c2csc(-c3ccc(C(=O)O)cc3)n2)cc1Cl [Compound 2]
8,11 nM,Cc1ccc(C)c2oc(-c3nc(-c4ccc(C(=O)O)cc4F)no3)cc12 [Compound 16]
9,12 nM,"CCCCOCCOc1nc(-c2ccc(C(=O)O)c(F)c2)sc1C [AC 261066, reference compound]"
10,11 nM,Cc1ccc(C)c2oc(-c3nc(-c4ccc(C(=O)O)cc4)no3)nc12 [Compound 13]
11,63 nM,CCOc1c(Cl)cc(-c2nnc(-c3ccc(C(=O)O)cc3)o2)cc1Cl [Compound 7]
12,1.4 nM,CC(C)(C)c1cc(-c2nc(-c3ccc(C(=O)O)cc3)no2)cc(C(C)(C)C)c1 [Compound 9]
13,2.2 nM,Cc1ccc(C)c2oc(-c3nc(-c4ccc(C(=O)O)c(F)c4)no3)cc12 [Compound 14]
14,0.83 nM,"COc1ccc(-c2ccc3cc(C(=O)O)ccc3c2)cc1C1(C)CCCCC1 [CD 2019, reference compound]"
15,1.5 nM,CCOc1c(Cl)cc(-c2nc(-c3ccc(C(=O)O)cc3)no2)cc1Cl [Compound 5]
16,28 nM,CCOc1c(Cl)cc(-c2cnc(-c3ccc(C(=O)O)cc3)o2)cc1Cl [Compound 4]
17,3.4 nM,Cc1ccc(C)c2sc(-c3nc(-c4ccc(C(=O)O)cc4)no3)cc12 [Compound 12]

row,SMILES,EC50
1,CC1(C)CCC(C)(C)c2cc(-c3nc(-c4ccc(C(=O)O)cc4)no3)ccc21 [Compound 8],4200 nM

# Same assay, conditions: relative to 5
row,SMILES,fold loss in potency as a RARβ agonist relative to 5
1,CC1(C)CCC(C)(C)c2cc(-c3nc(-c4ccc(C(=O)O)cc4)no3)ccc21 [Compound 8],> 2700 fold

# Same assay, conditions: relative to amide 1
row,fold more potent than 1 as an RARβ agonist,SMILES
1,> 40 fold,CCOc1c(Cl)cc(-c2cnc(-c3ccc(C(=O)O)cc3)o2)cc1Cl [Compound 4]

# Molecular target: T3, RARγ (Mus musculus, UniProt P18911)
# T3 construct: expressed in transfected cells; host or cells: COS-7
# T3 sequence (P18911 185-419 limits assumed): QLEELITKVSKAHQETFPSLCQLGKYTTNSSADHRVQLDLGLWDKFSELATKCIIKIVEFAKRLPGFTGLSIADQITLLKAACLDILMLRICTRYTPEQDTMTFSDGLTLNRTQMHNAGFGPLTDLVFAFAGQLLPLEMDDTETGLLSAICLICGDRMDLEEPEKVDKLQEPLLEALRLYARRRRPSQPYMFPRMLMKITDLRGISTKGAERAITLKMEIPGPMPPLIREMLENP
# Test: RAR gamma transactivation assay (gal4-RAR LBD fusion, luciferase reporter, COS-7 cells)
# Format: cell-based
# Conditions: mouse RAR ligand binding domain; Tables 1 and 4; read-out: γ EC50
# Protocol: as §1, §2, §3, §4, §5
row,EC50,SMILES
1,33 nM,"CCCCOCCOc1nc(-c2ccc(C(=O)O)c(F)c2)sc1C [AC 261066, reference compound]"
2,1.6 nM,"COc1ccc(-c2ccc3cc(C(=O)O)ccc3c2)cc1C1(C)CCCCC1 [CD 2019, reference compound]"
3,28 nM,CCOc1c(Cl)cc(-c2nc(-c3ccc(C(=O)O)cc3)no2)cc1Cl [Compound 5]
